Laboratory results as given in article PMC6121307, “Cloning and Functional Characterisation of the Duplicated RDL Subunits from the Pea Aphid, Acyrthosiphon pisum” (International Journal of Molecular Sciences, 2018).
Read-outs that look alike come from different tables or passages of the source.

Key:
Apisum RDL1ad [1] = target: T1, Apisum RDL1ad (Acyrthosiphon pisum, UniProt A0A385J708); assay: Antagonistic actions of neonicotinoids on GABA-induced currents, two-electrode voltage-clamp in X. laevis oocytes; assay type: cell-based; conditions: for activity at 100 µM: read-out: % of GABA Response with 100 μM neonicotinoid
T1 sequence (A0A385J708 33-567): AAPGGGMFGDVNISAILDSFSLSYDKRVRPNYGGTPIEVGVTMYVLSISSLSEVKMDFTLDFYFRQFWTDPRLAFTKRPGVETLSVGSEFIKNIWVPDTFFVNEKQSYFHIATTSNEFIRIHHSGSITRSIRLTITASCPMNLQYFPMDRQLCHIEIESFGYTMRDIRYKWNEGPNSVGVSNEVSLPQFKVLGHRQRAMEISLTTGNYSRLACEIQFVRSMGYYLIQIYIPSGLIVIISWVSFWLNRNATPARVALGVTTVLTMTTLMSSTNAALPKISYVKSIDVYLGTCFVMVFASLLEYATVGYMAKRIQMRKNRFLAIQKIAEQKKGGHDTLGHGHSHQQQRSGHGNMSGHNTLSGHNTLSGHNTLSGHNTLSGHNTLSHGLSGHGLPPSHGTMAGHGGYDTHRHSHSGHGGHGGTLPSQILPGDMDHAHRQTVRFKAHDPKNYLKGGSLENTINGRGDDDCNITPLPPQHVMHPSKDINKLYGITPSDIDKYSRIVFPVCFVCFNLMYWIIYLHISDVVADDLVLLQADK
Method: (§1) Functional studies of Apisum RDL1ad, Apisum RDL1bd and Apisum RDL2b variant 1 were performed using the X. laevis expression system and two-electrode voltage-clamp electrophysiology. Stage V and VI X. laevis oocytes were harvested and rinsed with Ca^2+ free solution (82 mM NaCl, 2 mM KCl, 2 mM MgCl2, 5 mM HEPES, pH 7.4), before defolliculating with 1 mg/mL type IA collagenase (Sigma, St. Louis, MO, USA) in Ca^2+ free solution. Defolliculated oocytes were injected with 2.3 ng (23 nL) Apisum Rdl plasmid DNA into the nucleus of the oocyte and stored in standard Barth’s solution (supplemented with 50 µg/mL neomycin and 10 µg/mL penicillin/streptomycin) at 17.5 °C.
(§2) Oocytes 1–7 days post-injection were placed in a recording chamber and clamped at −60 mV with 3 M KCl filled borosilicate glass electrodes (resistance 0.5–5 MΩ) and an Oocyte Clamp OC-725C amplifier (Warner Instruments, CT, USA). Responses were recorded on a flatbed chart recorder (Kipp & Zonen BD-11E, Delft, The Netherlands). Oocytes were perfused with standard oocyte saline (SOS; 100 mM NaCl, 2 mM KCl, 1.8 mM CaCl2, 1 mM MgCl2, 5 mM HEPES, pH 7.6) at a flow rate of 10 mL/min. Oocytes were selected for experiments if stable after three or more consecutive challenges of GABA at EC50 concentration. The GABA EC50 concentration was determined using GABA concentration response curves, which were generated by challenging oocytes to increasing concentrations of GABA in SOS, with 3 min between challenges. Curves were calculated by normalising the GABA current responses to maximal responses induced by GABA before and after application.
(§3) Insecticides were initially diluted in dimethylsulphoxide (DMSO), before diluting to final concentrations in SOS.
(§4) For measuring the antagonistic actions of neonicotinoids, oocytes were initially incubated with a perfusion of the neonicotinoid in SOS for 6 min, before challenging with a combination of neonicotinoid and either the respective EC50 GABA concentration or 1 mM GABA.

Apisum RDL1bd [2] = target: T2, Apisum RDL1bd (Acyrthosiphon pisum, UniProt A0A385J708); assay: as above; assay type: cell-based; conditions: for effect on responses induced by GABA: 100 μM neonicotinoid
T2 sequence (A0A385J708 33-567): T1 sequence (A0A385J708 33-567)
Method: as §1, §2, §3, §4

Apisum RDL1ad [3] = target: T1, Apisum RDL1ad; assay: Fipronil inhibition of GABA EC50 induced currents, two-electrode voltage-clamp in X. laevis oocytes; assay type: cell-based; conditions: GABA at EC50 (20 μM); 3 min pre-incubation; mean ± SEM
Method: as §1, §2
(§5) Insecticides were initially diluted in dimethylsulphoxide (DMSO), before diluting to final concentrations in SOS. […]
(§6) Data are presented as mean ± SEM of individual oocytes from three or more separate frogs. […] Statistical significance was determined as p < 0.05, performed using one-way ANOVA (Graphpad Software, CA, USA).

Apisum RDL1bd [4] = target: T2, Apisum RDL1bd; assay: as above; assay type: cell-based; conditions: GABA at EC50 (50 μM); 3 min pre-incubation; mean ± SEM
Method: as §1, §2, §5, §6

Apisum RDL2b variant 1 [5] = target: T3, Apisum RDL2b variant 1 (Acyrthosiphon pisum, UniProt A0A385J709); assay: as above; assay type: cell-based; conditions: GABA at EC50 (30 μM); 3 min pre-incubation; mean ± SEM
Method: as §1, §2, §5, §6

Apisum RDL1ad [6] = target: T1, Apisum RDL1ad; assay: GABA concentration response, two-electrode voltage-clamp in X. laevis oocytes; assay type: cell-based
Method: as §1, §2
(§7) Data are presented as mean ± SEM of individual oocytes from three or more separate frogs. The concentration of GABA required to evoke 50% of the maximum response (EC50), the concentration of fipronil required to inhibit 50% of the maximal GABA response (IC50), and the Hill coefficient (nH) were determined by non-linear regression using Graphpad Prism 5 (Graphpad Software, CA, USA). Statistical significance was determined as p < 0.05, performed using one-way ANOVA (Graphpad Software, CA, USA).

Apisum RDL1bd [7] = target: T2, Apisum RDL1bd; assay: as above; assay type: cell-based
Method: as §1, §2, §7

Apisum RDL2b variant 1 [8] = target: T3, Apisum RDL2b variant 1; assay: as above; assay type: cell-based
Method: as §1, §2, §7

An. gambiae RDL = test system: An. gambiae RDL; parameters: method as in PMID 26296809; conditions: 100 μM; expressed in Xenopus oocytes; cited from earlier work
A. mellifera RDL = test system: A. mellifera RDL; parameters: method as in PMID 27288983; conditions: 100 μM; expressed in Xenopus oocytes; cited from earlier work
[9] = test system: cultured honey bee Kenyon cells; parameters: method as in PMID 11872245; conditions: cited from earlier work
Apisum RDL2b var 1 = assay: Antagonistic actions of neonicotinoids on GABA-induced currents, two-electrode voltage-clamp in X. laevis oocytes; assay type: cell-based, Acyrthosiphon pisum
Method: as §1
as §2, with “The GABA EC50 concentration was determined using GABA concentration response curves, which were generated by challenging oocytes to increasing concentrations of GABA in SOS, with 3 min between challenges.” left out, “application. […]” for “application.”

[10] = 100 μM neonicotinoid, GABA at 1 mM
[11] = 100 μM neonicotinoid, GABA at EC50 concentration
[12] = initial 250 μM GABA response, eggs clamped at −60 mV, mean ± SEM

## CN/C(=N\[N+](=O)[O-])NCc1cnc(Cl)s1 [CLO, clothianidin]
Apisum RDL1ad [1]; [10]
  effect on responses induced by GABA: no antagonistic actions
Apisum RDL1ad [1]; [11]
  effect on responses induced by GABA: no antagonistic actions
Apisum RDL1ad [1]
  activity at 100 µM: 100%
Apisum RDL1bd [2]; GABA at 1 mM
  effect on responses induced by GABA: no antagonistic actions
Apisum RDL1bd [2]; GABA at EC50 concentration
  effect on responses induced by GABA: no antagonistic actions
Apisum RDL1bd [2]; GABA at EC50
  % of GABA Response with 100 μM neonicotinoid: 100%

## N#Cc1nn(-c2c(Cl)cc(C(F)(F)F)cc2Cl)c(N)c1[S+]([O-])C(F)(F)F (stereo not shown) [Fipronil, fipronil]
Apisum RDL1ad [3]
  IC50: 0.64 ± 0.15 µM
Apisum RDL1bd [4]
  IC50: 0.18 ± 0.06 µM
Apisum RDL2b variant 1 [5]
  IC50: 0.72 ± 0.19 µM

## NCCCC(=O)O [GABA, γ-aminobutyric acid]
Apisum RDL1ad [6]; [12]
  Imax (maximum amplitude): 1.6 ± 0.6 μA
Apisum RDL1ad [6]; mean ± SEM of 4-5 oocytes
  EC50: 23 ± 1.7 µM
  GABA nH (hill coefficient): 1.6 ± 0.1
Apisum RDL1bd [7]; [12]
  Imax (maximum amplitude): 1.4 ± 1.3 μA
Apisum RDL1bd [7]; mean ± SEM of 4-5 oocytes
  EC50: 51 ± 9.2 µM
  GABA nH (hill coefficient): 2.0 ± 0.3
Apisum RDL2b variant 1 [8]; [12]
  Imax (maximum amplitude): 1.4 ± 1.5 μA
Apisum RDL2b variant 1 [8]; mean ± SEM of 4-5 oocytes
  EC50: 28 ± 5.4 µM
  GABA nH (hill coefficient): 1.0 ± 0.1

## O=[N+]([O-])NC1=NCCN1Cc1ccc(Cl)nc1 [IMI, imidacloprid]
Apisum RDL1ad [1]; [10]
  effect on responses induced by GABA: no detectable effect
Apisum RDL1ad [1]; [11]
  effect on responses induced by GABA: no detectable effect
Apisum RDL1ad [1]; GABA at EC50, 100 μM neonicotinoid
  activity at 100 µM: 100%
Apisum RDL1bd [2]; GABA at 1 mM
  effect on responses induced by GABA: no detectable effect
Apisum RDL1bd [2]; GABA at EC50 concentration
  effect on responses induced by GABA: no detectable effect
Apisum RDL1bd [2]; GABA at EC50
  % of GABA Response with 100 μM neonicotinoid: 100%
An. gambiae RDL
  action on RDL: acted as an antagonist
A. mellifera RDL
  action on RDL: acted as an antagonist
[9]
  effect on GABA-induced responses: reduce GABA-induced responses

## N#C/N=C1\SCCN1Cc1ccc(Cl)nc1 [THI, thiacloprid]
Apisum RDL1bd [2]; GABA at EC50, 100 µM
  % of GABA Response with 100 μM neonicotinoid: 55 ± 7%
Apisum RDL1bd [2]; GABA at EC50, listed as thiacloprid, 100 µM
  % of GABA Response with 100 μM neonicotinoid: 55%
Apisum RDL2b var 1; GABA at EC50
  % of GABA Response with 100 μM neonicotinoid: 62 ± 2%
Apisum RDL2b var 1; GABA at EC50, listed as thiacloprid
  % of GABA Response with 100 μM neonicotinoid: 62%
